# US12139477B2, “Compounds, salts thereof and methods for treatment of diseases” (ACADIA PHARMACEUTICALS INC., priority 2017, dated 2024)
# Counter-ions that a name gives are not always drawn.
# Experiments:
# [1] = as stated by the drug label; cited from earlier work
# hCav1.2/β2/α2δ channels = hCav1.2/β2/α2δ channels (Homo sapiens, UniProt Q13936); experiment: CaV1.2 manual patch clamp, CHO cells (CR-CLE); format: cell-based
# From the text: Stocks were maintained in cryogenic storage. […] Each culture dish was identified by a notation of channel name, passage number, and date.
# Rationale for Selection of Ion Channel and Expression Systems: Reduction of ICa,L is associated with action potential shortening in atrial fibrillation (Van Wagoner, et al., Circ Res 85:428-436 (1999)) while augmentation of ICa,L current may produce action potential prolongation (Ahmmed, et al., Circ Res 86:558-570 (2000)) and early after depolarizations (January, et al., Circ Res 62:563-571 (1988)). ICa.L is produced by the combination of calcium channel subunits encoded by CACNA1C (α1-subunit), CACNB2 (β2-subunit) and CACNA2D1 (α2δ-subunit) cDNAs.
# • Organism: Cricetulus griseus • Tissue: Ovary; transfected with human CACNA1C • (α1-subunit), CACNB2 (β2-subunit), and • CACNA2D1 (α2δ-subunit) cDNAs • Morphology: Epithelial • Age/Stage: Adult • Source Strain: ATCC, Manassas, VA • Source Substrain: CR-CLE
# CHO Cell Culture Procedures: CHO cells were stably co-transfected with human CACNA1C (α1-subunit), CACNB2 (β2-subunit), and CACNA2D1 (α2δ-subunit) cDNAs. Stable transfectants were selected by coexpression of the cDNAs with antibiotic resistance genes for blasticidin, hygromycin, G418, and zeocin. Selection pressure was maintained by including these antibiotics in the culture medium. Cells were cultured in Ham's F12 Medium supplemented with 10% fetal bovine serum, penicillin-streptomycin (100 units/mL), blasticidin (10 μg/mL), zeocin (400 μg/mL), G418 (250 μg/mL) and hygromycin (250 μg/mL). To avoid Ca^2+-induced toxicity, verapamil (3 μmol/L) was added to the cultured cells.
# hCav1.2/β2/α2δ-CHO is a tetracycline-inducible cell line. To induce expression, tetracycline at a final concentration of 1 μg/mL was added to media lacking the selection antibiotics. Currents were recorded greater than 16 hours post-induction.
# Treatment Groups: All experiments were performed at room temperature. Each cell acted as its own control.
# Each concentration was tested in at least three cells (n≥3).
# Positive Control Group: The positive control article nifedipine (Sigma-Aldrich) was tested in two cells (n=2) at 0.1 μM. Previous results have shown that nifedipine at 0.1 μM inhibits hCav1.2 current by approximately 90%.
# Electrophysiological Procedures: Cells were superfused with vehicle control solution. Micropipette solution for whole cell patch clamp recordings was composed of (mM): Cs-methanesulfonate (MES), 130; TEA-Cl, 20, MgCl2, 1; EGTA, 10; Mg-ATP, 4; Tris-GTP, 0.3, phosphocreatine di-(Tris) salt, 14, creatine phosphokinase, 50 U/mL, and HEPES, 10; pH adjusted to 7.2 with N-methyl-D-glucamine or CsOH. Micropipette solution was prepared in batches, aliquoted, stored frozen, and a fresh aliquot thawed each day. […] Before digitization, current records were low-pass filtered at one-fifth of the sampling frequency.
# Experimental Procedures: Onset and steady inhibition was evaluated at a test potential of 0 mV (150 ms duration), repeated at ten-second intervals from a holding potential of −40 mV. Peak current was measured during the step to 0 mV. Peak current was monitored until a new steady state was achieved. hCav1.2 current was monitored until a new steady state was achieved and a steady state was maintained for at least 20 s before applying test article or positive control article formulations. […]
# (§1) Nonlinear least squares fits were solved with the Solver add-in for Excel 2003 or later (Microsoft, Redmond, WA) and the IC50 was calculated.
# [2] = target: T1, late hNav1.5 channel current (Homo sapiens, UniProt Q14524); experiment: NaV1.5 (for pimavanserin): late hNav1.5 current, HEK-293, ATX-II activated (CR-CLE); format: cell-based
# T1 sequence (Q14524 whole entry): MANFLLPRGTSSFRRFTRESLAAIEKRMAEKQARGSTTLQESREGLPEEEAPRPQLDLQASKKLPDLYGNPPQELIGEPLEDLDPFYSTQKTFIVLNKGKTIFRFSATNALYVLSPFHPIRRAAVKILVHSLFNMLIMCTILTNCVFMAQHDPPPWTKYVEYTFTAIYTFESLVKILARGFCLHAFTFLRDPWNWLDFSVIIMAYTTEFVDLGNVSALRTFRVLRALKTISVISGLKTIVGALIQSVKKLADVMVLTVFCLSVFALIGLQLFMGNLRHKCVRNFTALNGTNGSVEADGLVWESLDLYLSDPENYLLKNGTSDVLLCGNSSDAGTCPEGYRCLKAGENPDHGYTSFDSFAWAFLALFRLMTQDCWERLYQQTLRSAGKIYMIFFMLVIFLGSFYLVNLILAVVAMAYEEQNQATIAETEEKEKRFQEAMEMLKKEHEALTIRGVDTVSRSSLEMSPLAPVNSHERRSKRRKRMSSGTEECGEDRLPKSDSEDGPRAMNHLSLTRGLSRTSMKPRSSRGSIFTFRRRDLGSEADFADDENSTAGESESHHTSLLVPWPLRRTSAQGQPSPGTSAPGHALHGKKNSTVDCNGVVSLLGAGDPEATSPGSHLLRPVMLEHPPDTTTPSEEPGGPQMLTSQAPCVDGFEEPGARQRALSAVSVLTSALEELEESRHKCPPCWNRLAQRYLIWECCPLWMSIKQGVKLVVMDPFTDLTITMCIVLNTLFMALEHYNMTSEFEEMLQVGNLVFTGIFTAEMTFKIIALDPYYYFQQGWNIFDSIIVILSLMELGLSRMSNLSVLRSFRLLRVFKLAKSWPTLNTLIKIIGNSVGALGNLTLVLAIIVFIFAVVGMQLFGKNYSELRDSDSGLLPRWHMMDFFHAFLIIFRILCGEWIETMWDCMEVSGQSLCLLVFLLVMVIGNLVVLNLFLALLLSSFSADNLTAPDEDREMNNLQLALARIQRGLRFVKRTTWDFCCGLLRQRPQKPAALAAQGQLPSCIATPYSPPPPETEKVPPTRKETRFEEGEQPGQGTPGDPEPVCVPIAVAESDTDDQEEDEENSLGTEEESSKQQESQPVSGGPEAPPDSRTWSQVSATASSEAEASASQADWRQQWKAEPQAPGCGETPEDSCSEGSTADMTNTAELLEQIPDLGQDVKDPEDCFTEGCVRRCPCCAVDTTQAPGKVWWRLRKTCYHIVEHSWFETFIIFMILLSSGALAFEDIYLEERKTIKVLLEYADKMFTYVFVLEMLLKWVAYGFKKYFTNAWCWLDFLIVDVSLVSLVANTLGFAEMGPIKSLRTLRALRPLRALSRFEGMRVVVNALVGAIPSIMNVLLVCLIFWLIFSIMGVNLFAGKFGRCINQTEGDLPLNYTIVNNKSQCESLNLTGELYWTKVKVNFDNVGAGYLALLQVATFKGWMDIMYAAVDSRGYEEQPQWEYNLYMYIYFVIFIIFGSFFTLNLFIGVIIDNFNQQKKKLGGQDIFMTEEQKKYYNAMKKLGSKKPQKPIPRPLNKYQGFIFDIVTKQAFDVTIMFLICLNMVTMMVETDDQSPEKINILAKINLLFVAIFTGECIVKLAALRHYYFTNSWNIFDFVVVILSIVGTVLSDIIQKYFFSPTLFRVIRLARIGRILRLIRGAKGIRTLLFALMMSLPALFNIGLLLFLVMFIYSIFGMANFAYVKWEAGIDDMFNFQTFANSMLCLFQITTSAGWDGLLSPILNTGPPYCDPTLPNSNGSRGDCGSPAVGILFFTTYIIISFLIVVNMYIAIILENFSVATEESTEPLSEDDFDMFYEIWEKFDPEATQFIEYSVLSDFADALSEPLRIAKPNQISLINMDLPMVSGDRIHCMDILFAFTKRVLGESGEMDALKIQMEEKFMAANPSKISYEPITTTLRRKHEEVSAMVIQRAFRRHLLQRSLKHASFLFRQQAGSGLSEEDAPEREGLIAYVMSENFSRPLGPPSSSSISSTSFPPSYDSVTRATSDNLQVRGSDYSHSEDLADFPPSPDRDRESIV
# Procedure: as §1
# 0.1 μM ATX-II was omitted from the vehicle control solution used during initial gigaohm seal formation, transition to whole-cell patch clamp configuration and preliminary baseline recording before activation of late Nav1.5 current with 0.1 μM ATX-II. […] Positive Control Article: • Name: Ranolazine dihydrochloride • Source: Tocris • Batch Number: 2A/215231 • Molecular Weight: 509.47 g/mol • Purity: 98.7% • Storage Conditions: Room temperature • Rationale for Selection: Previous results have shown that 100 μM ranolazine dihydrochloride inhibits INa,L by approximately 85% End Blocker • Name: Lidocaine • Source: Sigma-Aldrich • Lot Number: MKBX2132V • Molecular Weight (g/mol): 234.34 • Storage Conditions: Room temperature • Rationale for Selection: Lidocaine is an inhibitor of peak hNav1.5 and late hNav1.5 currents. Each recording will end with application of 2 mM lidocaine to determine the amplitude of endogenous currents. […]
# Electrophysiological Procedures: Cells were superfused with vehicle control solution without ATX-II (HB-PS+0.3% DMSO) until after whole-cell configuration was achieved and a stable baseline current was recorded. […]
# hERG potassium channel = hERG potassium channel (Homo sapiens, UniProt Q12809); experiment: in vitro; settings: human, pH 7.4
# Sequence of hERG potassium channel (Q12809 whole entry): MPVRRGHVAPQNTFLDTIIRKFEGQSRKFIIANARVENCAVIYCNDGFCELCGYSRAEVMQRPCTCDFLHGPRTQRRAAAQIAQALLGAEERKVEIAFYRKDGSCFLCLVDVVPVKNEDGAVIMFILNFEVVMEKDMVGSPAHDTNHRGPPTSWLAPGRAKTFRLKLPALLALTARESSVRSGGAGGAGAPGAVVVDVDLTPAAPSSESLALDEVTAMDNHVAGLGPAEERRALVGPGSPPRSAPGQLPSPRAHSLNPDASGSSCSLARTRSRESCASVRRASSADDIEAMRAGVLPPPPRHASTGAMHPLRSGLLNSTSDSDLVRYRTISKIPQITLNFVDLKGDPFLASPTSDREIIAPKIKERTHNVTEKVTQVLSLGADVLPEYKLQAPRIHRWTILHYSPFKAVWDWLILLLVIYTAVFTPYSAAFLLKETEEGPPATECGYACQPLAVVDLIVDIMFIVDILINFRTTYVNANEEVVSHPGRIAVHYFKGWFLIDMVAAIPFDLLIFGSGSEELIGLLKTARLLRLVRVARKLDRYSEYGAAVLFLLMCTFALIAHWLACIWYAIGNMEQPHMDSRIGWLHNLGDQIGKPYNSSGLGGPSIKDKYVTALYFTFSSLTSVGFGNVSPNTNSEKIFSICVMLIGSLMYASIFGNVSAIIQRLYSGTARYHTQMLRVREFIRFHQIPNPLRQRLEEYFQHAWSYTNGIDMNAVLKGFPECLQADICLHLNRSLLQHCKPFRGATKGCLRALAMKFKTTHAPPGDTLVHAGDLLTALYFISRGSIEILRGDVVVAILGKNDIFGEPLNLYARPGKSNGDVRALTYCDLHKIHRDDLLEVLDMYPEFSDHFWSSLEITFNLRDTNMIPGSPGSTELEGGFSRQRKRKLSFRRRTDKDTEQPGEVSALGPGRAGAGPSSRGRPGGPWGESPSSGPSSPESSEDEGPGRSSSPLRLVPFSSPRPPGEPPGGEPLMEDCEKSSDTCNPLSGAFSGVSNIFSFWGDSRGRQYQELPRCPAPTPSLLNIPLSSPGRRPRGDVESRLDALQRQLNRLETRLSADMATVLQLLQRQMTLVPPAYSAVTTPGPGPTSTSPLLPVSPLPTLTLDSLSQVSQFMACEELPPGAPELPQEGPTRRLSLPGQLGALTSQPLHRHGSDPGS
# Procedure: Each cell acted as its own control.
# Temperature was measured using a thermistor probe in the recording chamber.
# [3] = target: T1, late hNav1.5 channel current; settings: Oliveira, et al., J. Biol. Chem. 279 (2004); read-out: EC50 for increase of INa,L; cited from earlier work
compound,measurement,setting,value
CC(C)COc1ccc(CNC(=O)N(Cc2ccc(F)cc2)C2CCN(C)CC2)cc1 [Pimavanserin],effect on QT interval,[1],prolongs the QT interval
same,IC50,"hCav1.2/β2/α2δ channels; manual patch clamp, room temperature, read-out: CaV 1.2 IC50",1200 nM
same,IC50,[2]; read-out: NaV 1.5 IC50,1200 nM
"COc1cc(N)c(Cl)cc1C(=O)NC1CCN(CCCOc2ccc(F)cc2)CC1OC (stereo not shown) [cisapride, reference compound]",inhibition at 0.09 µM,hERG potassium channel,~80%
"COC(=O)C1=C(C)NC(C)=C(C(=O)OC)C1c1ccccc1[N+](=O)[O-] [nifedipine, reference compound]",inhibition at 0.1 µM,"hCav1.2/β2/α2δ channels; 0.1 μM, positive control, previous results, read-out: inhibition of hCav1.2 current",~90%
"COc1ccccc1OCC(O)CN1CCN(CC(=O)Nc2c(C)cccc2C)CC1 (stereo not shown) [ranolazine dihydrochloride, Ranolazine dihydrochloride]",inhibition at 100 µM,"[2]; HEK293, 100 μM, positive control, previous results, read-out: inhibition of INa,L",~85%
"ATX-II: ""Late hNav1.5 Current Agonist""; ""ATX-II increases INa,L""; Molecular Weight 4935; Source: Alomone Labs",EC50,[3],~4 nM
